{"source": "paper PMC5897141", "about": "(Journal of neurochemistry, 2018)", "key": {"[1]": {"system": "VAChT", "settings": "Lassen plot, baseline vs (-)-vesamicol 0.125 mg/kg; subject A"}, "[2]": {"target": "VAChT", "settings": "ref Tu et al. 2015; cited from earlier work"}, "[3]": {"test": "HPLC radio-metabolite analysis of arterial plasma", "type": "in vivo, cynomolgus macaques"}, "[4]": {"system": "σ1/2 receptors", "settings": "ref Tu et al. 2015; cited from earlier work"}, "[5]": {"system": "VAChT", "test": "Test-retest reproducibility of BPND", "type": "in vivo, cynomolgus macaques", "settings": "mean ± SD, 3 NHP subjects"}, "[6]": {"system": "VAChT", "type": "in vivo, cynomolgus macaques", "settings": "mean ± SD, n = 3"}, "[7]": {"settings": "after 20 min p.i., 3 NHP subjects"}}, "note": "“And” between values parts separate entries of the source, which are not always exact repeats. Identical values can stand only once. Like-named read-outs stand apart in the source and are kept apart here.", "data": [{"compound": "O=C(c1ccc(F)cc1)C1CCN(C2Cc3c(cccc3OCCF)CC2O)CC1", "note": "(single isomer, unassigned; (-)) [[^18F]VAT, ((-)-(1-(-8-(2-fluoroethoxy)-3-hydroxy-1,2,3,4-tetrahydronaphthalen-2-yl)piperidin-4-yl)(4-fluorophenyl)-methanone)]", "values": [{"measurement": "VND (non-displaceable distribution volume)", "setting": "[1]", "result": "~ 1.27"}, {"measurement": "Ki", "setting": "[2]", "result": 0.59, "unit": "nM"}, {"measurement": "percentile of unmetabolized parental tracer in plasma", "setting": "[3]; 2 min post-injection", "result": "96% ± 1"}, {"measurement": "percentile of unmetabolized parental tracer in plasma", "setting": "[3]; 90 min post-injection", "result": "14% ± 2.7"}, {"measurement": "parent tracer as share of total radioactivity in plasma", "setting": "[3]; [7]", "result": "over 60%"}, {"measurement": "polar metabolites as share of total radioactivity in plasma", "setting": "[3]; [7]", "result": "~ 40%"}, {"measurement": "time of peak concentration of parental compound in plasma", "setting": "[3]; post-injection", "result": "less than 1 min"}, {"measurement": "selectivity for VAChT versus σ1/2 receptors", "setting": "[4]", "result": "over 10,000 fold"}, {"measurement": "retest BPND", "setting": "[5]; LoganREF, frontal cortex", "result": "0.29 ± 0.08"}, {"measurement": "test BPND", "setting": "[5]; LoganREF, frontal cortex", "result": "0.29 ± 0.06"}, {"measurement": "retest BPND", "setting": "[5]; LoganREF, hippocampus", "result": "0.47 ± 0.19"}, {"measurement": "test BPND", "setting": "[5]; LoganREF, hippocampus", "result": "0.46 ± 0.18"}, {"measurement": "retest BPND", "setting": "[5]; LoganREF, striatum", "result": "2.26 ± 0.46"}, {"measurement": "test BPND", "setting": "[5]; LoganREF, striatum", "result": "2.39 ± 0.73"}, {"measurement": "retest BPND", "setting": "[5]; LoganREF, thalamus", "result": "0.74 ± 0.09"}, {"measurement": "test BPND", "setting": "[5]; LoganREF, thalamus", "result": "0.70 ± 0.10"}, {"measurement": "retest BPND", "setting": "[5]; SRTM, frontal cortex", "result": "0.30 ± 0.03"}, {"measurement": "test BPND", "setting": "[5]; SRTM, frontal cortex", "result": "0.32 ± 0.07"}, {"measurement": "retest BPND", "setting": "[5]; SRTM, hippocampus", "result": "0.48 ± 0.14"}, {"measurement": "test BPND", "setting": "[5]; SRTM, hippocampus", "result": "0.46 ± 0.16"}, {"measurement": "retest BPND", "setting": "[5]; SRTM, striatum", "result": "2.15 ± 0.38"}, {"measurement": "test BPND", "setting": "[5]; SRTM, striatum", "result": "2.38 ± 0.69"}, {"measurement": "retest BPND", "setting": "[5]; SRTM, thalamus", "result": "0.77 ± 0.12"}, {"measurement": "test BPND", "setting": "[5]; SRTM, thalamus", "result": "0.77 ± 0.13"}, {"measurement": "BPND", "setting": "[6]; 1TCM, striatum", "result": "2.69 ± 1.1 (24%)"}, {"measurement": "DVR", "setting": "[6]; 1TCM, striatum", "result": "3.70 ± 1.1 (17%)"}, {"measurement": "K1", "setting": "[6]; 1TCM, striatum", "result": "0.221 ± 0.20 (52%) mL·cm^−3·min^−1"}, {"measurement": "VT", "setting": "[6]; 1TCM, striatum", "result": "22.12 ± 14.1 (37%) mL· cm^−3"}, {"measurement": "k2", "setting": "[6]; 1TCM, striatum", "result": "0.009 ± 0.004 (26%) min^−1"}, {"measurement": "BPND = DVR-1", "setting": "[6]; 2TCM, cerebellum-hemispheres (reference region)", "result": "0.00 ± 0.00"}, {"measurement": "K1", "setting": "[6]; 2TCM, cerebellum-hemispheres", "result": "0.144 ± 0.093", "unit": "mL·cm^−3·min^−1"}, {"measurement": "VT", "setting": "[6]; 2TCM, cerebellum-hemispheres", "result": "5.85 ± 5.88", "unit": "mL· cm^−3"}, {"measurement": "k2", "setting": "[6]; 2TCM, cerebellum-hemispheres", "result": "0.063 ± 0.010", "unit": "min⁻¹"}, {"measurement": "k3", "setting": "[6]; 2TCM, cerebellum-hemispheres", "result": "0.007 ± 0.005", "unit": "min⁻¹"}, {"measurement": "k3 / k4", "setting": "[6]; 2TCM, cerebellum-hemispheres", "result": "1.09 ± 0.84"}, {"measurement": "k4", "setting": "[6]; 2TCM, cerebellum-hemispheres", "result": "0.004 ± 0.003", "unit": "min⁻¹"}, {"measurement": "BPND = DVR-1", "setting": "[6]; 2TCM, frontal cortex", "result": "0.44 ± 0.10"}, {"measurement": "K1", "setting": "[6]; 2TCM, frontal cortex", "result": "0.103 ± 0.046", "unit": "mL·cm^−3·min^−1"}, {"measurement": "VT", "setting": "[6]; 2TCM, frontal cortex", "result": "7.13 ± 6.52", "unit": "mL· cm^−3"}, {"measurement": "k2", "setting": "[6]; 2TCM, frontal cortex", "result": "0.035 ± 0.004", "unit": "min⁻¹"}, {"measurement": "k3", "setting": "[6]; 2TCM, frontal cortex", "result": "0.010 ± 0.012", "unit": "min⁻¹"}, {"measurement": "k3 / k4", "setting": "[6]; 2TCM, frontal cortex", "result": "0.94 ± 0.64"}, {"measurement": "k4", "setting": "[6]; 2TCM, frontal cortex", "result": "0.004 ± 0.001", "unit": "min⁻¹"}, {"measurement": "BPND = DVR-1", "setting": "[6]; 2TCM, hippocampus", "result": "0.61 ± 0.41"}, {"measurement": "K1", "setting": "[6]; 2TCM, hippocampus", "result": "0.102 ± 0.059", "unit": "mL·cm^−3·min^−1"}, {"measurement": "VT", "setting": "[6]; 2TCM, hippocampus", "result": "7.46 ± 5.56", "unit": "mL· cm^−3"}, {"measurement": "k2", "setting": "[6]; 2TCM, hippocampus", "result": "0.035 ± 0.008", "unit": "min⁻¹"}, {"measurement": "k3", "setting": "[6]; 2TCM, hippocampus", "result": "0.014 ± 0.010", "unit": "min⁻¹"}, {"measurement": "k3 / k4", "setting": "[6]; 2TCM, hippocampus", "result": "1.15 ± 0.62"}, {"measurement": "k4", "setting": "[6]; 2TCM, hippocampus", "result": "0.014 ± 0.013", "unit": "min⁻¹"}, {"measurement": "BPND = DVR-1", "setting": "[6]; 2TCM, midbrain", "result": "0.18 ± 0.13"}, {"measurement": "K1", "setting": "[6]; 2TCM, midbrain", "result": "0.107 ± 0.091", "unit": "mL·cm^−3·min^−1"}, {"measurement": "VT", "setting": "[6]; 2TCM, midbrain", "result": "5.61 ± 4.55", "unit": "mL· cm^−3"}, {"measurement": "k2", "setting": "[6]; 2TCM, midbrain", "result": "0.039 ± 0.009", "unit": "min⁻¹"}, {"measurement": "k3", "setting": "[6]; 2TCM, midbrain", "result": "0.007 ± 0.003", "unit": "min⁻¹"}, {"measurement": "k3 / k4", "setting": "[6]; 2TCM, midbrain", "result": "1.06 ± 0.30"}, {"measurement": "k4", "setting": "[6]; 2TCM, midbrain", "result": "0.006 ± 0.001", "unit": "min⁻¹"}, {"measurement": "BPND = DVR-1", "setting": "[6]; 2TCM, occipital cortex", "result": "0.12 ± 0.075"}, {"measurement": "K1", "setting": "[6]; 2TCM, occipital cortex", "result": "0.101 ± 0.054", "unit": "mL·cm^−3·min^−1"}, {"measurement": "VT", "setting": "[6]; 2TCM, occipital cortex", "result": "5.51 ± 4.97", "unit": "mL· cm^−3"}, {"measurement": "k2", "setting": "[6]; 2TCM, occipital cortex", "result": "0.039 ± 0.005", "unit": "min⁻¹"}, {"measurement": "k3", "setting": "[6]; 2TCM, occipital cortex", "result": "0.004 ± 0.001", "unit": "min⁻¹"}, {"measurement": "k3 / k4", "setting": "[6]; 2TCM, occipital cortex", "result": "0.82 ± 0.53"}, {"measurement": "k4", "setting": "[6]; 2TCM, occipital cortex", "result": "0.005 ± 0.001", "unit": "min⁻¹"}, {"measurement": "DVR", "setting": "[6]; 2TCM, striatum", "result": "4.37 ± 0.34 (4%)"}, {"measurement": "K1", "setting": "[6]; 2TCM, striatum", "result": "0.113 ± 0.068 (35%) mL·cm^−3·min^−1 and 0.113 ± 0.068 mL·cm^−3·min^−1"}, {"measurement": "VT", "setting": "[6]; 2TCM, striatum", "result": "22.31 ± 20.7 (54%) mL· cm^−3 and 22.31 ± 20.71 mL· cm^−3"}, {"measurement": "k2", "setting": "[6]; 2TCM, striatum", "result": "0.027 ± 0.005 (11%) min^−1 and 0.027 ± 0.005 min^−1"}, {"measurement": "k3", "setting": "[6]; 2TCM, striatum", "result": "0.019 ± 0.009 (27%) min^−1 and 0.019 ± 0.009 min^−1"}, {"measurement": "k3 / k4", "setting": "[6]; 2TCM, striatum", "result": "3.52 ± 1.14"}, {"measurement": "k4", "setting": "[6]; 2TCM, striatum", "result": "0.005 ± 0.001 (12%) min^−1 and 0.005 ± 0.001 min^−1"}, {"measurement": "BPND = DVR-1", "setting": "[6]; 2TCM, temporal cortex", "result": "0.097 ± 0.076"}, {"measurement": "K1", "setting": "[6]; 2TCM, temporal cortex", "result": "0.086 ± 0.042", "unit": "mL·cm^−3·min^−1"}, {"measurement": "VT", "setting": "[6]; 2TCM, temporal cortex", "result": "5.23 ± 4.45", "unit": "mL· cm^−3"}, {"measurement": "k2", "setting": "[6]; 2TCM, temporal cortex", "result": "0.033 ± 0.003", "unit": "min⁻¹"}, {"measurement": "k3", "setting": "[6]; 2TCM, temporal cortex", "result": "0.003 ± 0.001", "unit": "min⁻¹"}]}]}
